Test results published in ChEMBL document CHEMBL1148592, “Synthesis and antiviral evaluation of cyclic and acyclic 2-methyl-3-hydroxy-4-pyridinone nucleoside derivatives” (J Med Chem, 2006).

How the values were obtained:
[1] = test system: Human alphaherpesvirus 1; test: Antiviral activity against HSV1 KOS in HEL cells; type: functional, organism-based; details: Human alphaherpesvirus 1, KOS
[2] = test system: Human alphaherpesvirus 1; test: Antiviral activity against HSV1 TK- in HEL cells; type: functional, organism-based; details: Human alphaherpesvirus 1, TK-
[3] = test system: Human alphaherpesvirus 2; test: Antiviral activity against HSV2 G in HEL cells; type: functional, organism-based; details: Human alphaherpesvirus 2, G
[4] = Minimum toxic concentration in HEL cells; type: toxicity, cell-based; details: human, read-out: MTC
[5] = test system: Human immunodeficiency virus 1; test: Antiviral activity against HIV1 IIIB in CEM cells; type: functional, organism-based; details: Human immunodeficiency virus 1, 3B, CCRF-CEM
[6] = test system: Human immunodeficiency virus 2; test: Antiviral activity against HIV2 ROD in CEM cells; type: functional, organism-based; details: Human immunodeficiency virus 2, ROD, CCRF-CEM
[7] = test system: CCRF-CEM; test: Cytotoxicity in CEM cells; type: functional; details: Homo sapiens

SMILES | EC50 [1] [µM] | EC50 [2] [µM] | EC50 [3] [µM] | MCC [4] [µM] | EC50 [5] [µM] | EC50 [6] [µM] | CC50 [7] [µM]
Cc1c(O)c(=O)ccn1[C@H]1CC[C@H](CO)O1 | 177 | > 177 | > 177 | > 900 | > 90 | > 90 | 84
Cc1c(O)c(=O)ccn1[C@H]1CS[C@@H](CO)O1 (racemic) | 32 | 80 | 81 | > 400 | > 80 | > 80 | 188
Nc1nc2c(ncn2COC(CO)CO)c(=O)[nH]1 [GANCICLOVIR] |  |  | 0.06 |  | > 50 | > 50 | 
Nc1nc2c(ncn2COCCO)c(=O)[nH]1 [ACYCLOVIR] | 1.12 | 86.6 | 1.76 | > 1700 | > 50 | > 50 | 
Cc1c(O)c(=O)ccn1[C@@H]1CS[C@@H](CO)O1 (racemic) | 40 | 95 | 90 | > 400 | > 80 | > 80 | 188
Cc1c(O)c(=O)ccn1[C@H]1CC[C@@H](CO)O1 | 40 | 500 | > 900 | > 900 | > 50 | > 50 | > 50
Nc1ccn(C[C@@H](CO)OCP(=O)(O)O)c(=O)n1 [CIDOFOVIR] | 0.57 |  |  | > 350 | > 10 | > 10 | 
Cc1c(OCc2ccccc2)c(=O)ccn1[C@H]1CC[C@@H](CO)O1 | > 200 | > 200 | > 200 | > 900 | > 150 | > 150 | > 150
Cc1c(O)c(=O)ccn1[C@@H]1CC[C@@H](CO)O1 | 177 | > 177 | > 177 | > 900 | > 50 | > 50 | 101
Cc1cn([C@H]2C[C@H](N=[N+]=[N-])[C@@H](CO)O2)c(=O)[nH]c1=O [ZIDOVUDINE] |  |  |  |  | 0.0055 | 0.0055 | > 100
Cc1c(O)c(=O)ccn1CCOCP(=O)(O)O | > 200 |  | > 200 | > 200 | > 50 | > 50 | > 50
